What was measured:
Androgen receptor = molecular target: T1, Androgen receptor (Rattus norvegicus, UniProt P15207); experiment: Displacement of [3H]R1881 from rat androgen receptor
T1 sequence (P15207 whole entry): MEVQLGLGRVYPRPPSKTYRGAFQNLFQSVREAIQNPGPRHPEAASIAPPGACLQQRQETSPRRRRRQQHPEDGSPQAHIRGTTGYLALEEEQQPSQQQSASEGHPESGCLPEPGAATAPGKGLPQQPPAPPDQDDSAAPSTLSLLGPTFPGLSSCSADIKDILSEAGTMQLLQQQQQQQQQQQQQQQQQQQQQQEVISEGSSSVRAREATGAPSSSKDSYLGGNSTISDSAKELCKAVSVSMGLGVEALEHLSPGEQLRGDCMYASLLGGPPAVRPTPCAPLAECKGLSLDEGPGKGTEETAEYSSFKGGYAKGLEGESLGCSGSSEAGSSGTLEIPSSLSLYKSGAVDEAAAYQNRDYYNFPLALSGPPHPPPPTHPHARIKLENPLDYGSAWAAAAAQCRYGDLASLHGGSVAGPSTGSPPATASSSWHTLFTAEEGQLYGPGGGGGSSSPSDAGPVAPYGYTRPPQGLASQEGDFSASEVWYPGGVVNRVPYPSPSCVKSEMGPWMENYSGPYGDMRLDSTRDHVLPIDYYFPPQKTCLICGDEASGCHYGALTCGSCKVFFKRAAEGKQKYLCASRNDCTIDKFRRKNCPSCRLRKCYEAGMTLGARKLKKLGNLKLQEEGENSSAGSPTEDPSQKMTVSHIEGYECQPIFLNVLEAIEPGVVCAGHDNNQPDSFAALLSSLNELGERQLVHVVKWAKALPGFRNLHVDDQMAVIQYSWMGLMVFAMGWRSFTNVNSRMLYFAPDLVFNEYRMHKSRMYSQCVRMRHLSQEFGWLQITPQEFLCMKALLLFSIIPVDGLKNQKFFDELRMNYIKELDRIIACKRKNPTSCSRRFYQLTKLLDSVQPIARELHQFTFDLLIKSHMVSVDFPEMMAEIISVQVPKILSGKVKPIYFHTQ

[1] = molecular target: T2, Androgen receptor (Rattus norvegicus) (UniProt P15207); experiment: Displacement of [3H]R1881 from rat androgen receptor at 30 uM relative to control
T2 sequence (whole entry): T1 sequence (P15207 whole entry)

Row | SMILES | IC50 (Androgen receptor) | inhibition [1]
1 | CC(O)(CSc1ccc(Cl)c(Cl)c1)c1cc2cc([N+](=O)[O-])c(C(F)(F)F)cc2[nH]1 (centres undefined) | 1 µM | –
2 | CC(O)(CSc1ccccc1)c1cc2cc(Cl)c(C(F)(F)F)cc2[nH]1 (centres undefined) | 0.22 µM | –
3 | Cc1ccc(C(=O)OCC(C)(O)c2cc3cc([N+](=O)[O-])c(C(F)(F)F)cc3[nH]2)cc1 (centres undefined) | 3 µM | –
4 | CC(O)(COC(=O)c1ccc(F)cc1)c1cc2cc(C#N)c(C(F)(F)F)cc2[nH]1 (centres undefined) | 1.2 µM | –
5 | CN(C)c1ccc(C(=O)OCC(C)(O)c2cc3cc([N+](=O)[O-])c(C(F)(F)F)cc3[nH]2)cc1 (centres undefined) | 2.6 µM | –
6 | CC(O)(COC(=O)c1ccc([N+](=O)[O-])cc1)c1cc2cc([N+](=O)[O-])c(C(F)(F)F)cc2[nH]1 (centres undefined) | 1.6 µM | –
7 | CC(O)(CSc1ccc(Cl)cc1)c1cc2cc(Cl)c(C(F)(F)F)cc2[nH]1 (centres undefined) | 0.18 µM | –
8 | CC(O)(CSc1ccc(Cl)cc1)c1cc2ccccc2[nH]1 (centres undefined) | – | < 50%
9 | CC(O)(COC(=O)c1ccccc1)c1cc2cc(C#N)c(C(F)(F)F)cc2[nH]1 (centres undefined) | 0.48 µM | –
10 | CC(O)(COC(=O)c1ccccc1C(F)(F)F)c1cc2cc(NC(=O)C(F)(F)F)c(C(F)(F)F)cc2[nH]1 (centres undefined) | 0.15 µM | –
11 | CC(C)(C)c1ccc(C(=O)OCC(C)(O)c2cc3cc([N+](=O)[O-])c(C(F)(F)F)cc3[nH]2)cc1 (centres undefined) | 3.6 µM | –
12 | COC(=O)c1ccc2[nH]c(C(C)(O)CSc3ccc(Cl)cc3)cc2c1 (centres undefined) | – | < 50%
13 | CC(O)(CS(=O)(=O)c1ccc(F)cc1)c1cc2cc(C#N)c(C(F)(F)F)cc2[nH]1 (centres undefined) | > 6.9 µM | –
14 | COc1ccc(C(=O)OCC(C)(O)c2cc3cc([N+](=O)[O-])c(C(F)(F)F)cc3[nH]2)cc1 (centres undefined) | 6.4 µM | –
